Measurements: ChEMBL document CHEMBL5550154, “Novel biaryloxazolidinone derivatives with broad-spectrum antibacterial activity, favorable drug-like profiles and in vivo efficacy against linezolid-resistant Staphylococcusaureus” (Eur J Med Chem, 2024)
Values after ≈ are worked out from the molar mass of the structure shown.

How the values were obtained:
[1] = Microsomal stability in monkey liver microsomes assessed as elimination half life pretreated with compound upto 60 mins followed by NADPH addition and measured after 60 mins by LC/MS analysis; format: ADME, Macaca mulatta, Microsome; conditions: rhesus monkey, time < 120 min, read-out: beta t1/2
[2] = Microsomal stability in dog liver microsomes assessed as elimination half life pretreated with compound upto 60 mins followed by NADPH addition and measured after 60 mins by LC/MS analysis; format: ADME, Canis lupus familiaris, Microsome; conditions: time < 120 min; for half-life: liver microsomes, read-out: beta t1/2
[3] = Microsomal stability in rat liver microsomes assessed as elimination half life pretreated with compound upto 60 mins followed by NADPH addition and measured after 60 mins by LC/MS analysis; format: ADME, Microsome; conditions: for half-life: liver microsomes, read-out: beta t1/2
[4] = Microsomal stability in rat liver microsomes assessed as intrinsic clearance pretreated with compound upto 60 mins followed by NADPH addition and measured after 60 mins by LC/MS analysis; format: ADME, Microsome; conditions: time < 120 min, read-out: CLH
[5] = Microsomal stability in mouse liver microsomes assessed as intrinsic clearance pretreated with compound upto 60 mins followed by NADPH addition and measured after 60 mins by LC/MS analysis; format: ADME, Microsome; conditions: time < 120 min, read-out: CLH
[6] = Microsomal stability in rat liver microsomes assessed as parent compound remaining pretreated with compound upto 60 mins followed by NADPH addition and measured after 60 mins by LC/MS analysis; format: ADME, Microsome; conditions: time < 120 min; for remaining at 2 h: liver microsomes, read-out: Stability
[7] = Microsomal stability in mouse liver microsomes assessed as parent compound remaining pretreated with compound upto 60 mins followed by NADPH addition and measured after 60 mins by LC/MS analysis; format: ADME, Microsome; conditions: time < 120 min; for remaining at 2 h: liver microsomes, read-out: Stability
[8] = Stability in human plasma assessed as parent compound remaining at 37 degreeC measured upto 60 mins by HPLC analysis; format: ADME, cell-free; conditions: read-out: Stability
[9] = Stability in monkey plasma assessed as parent compound remaining at 37 degreeC measured upto 60 mins by HPLC analysis; format: ADME, cell-free, Macaca mulatta; conditions: rhesus monkey, read-out: Stability
[10] = Stability in dog plasma assessed as parent compound remaining at 37 degreeC measured upto 60 mins by HPLC analysis; format: ADME, cell-free, Canis lupus familiaris; conditions: read-out: Stability
[11] = Plasma protein binding in monkey incubated for 6 hrs by LC-MS/MS analysis; format: ADME, cell-free, Macaca mulatta; conditions: rhesus monkey, read-out: PPB (converted)
[12] = Plasma protein binding in mouse incubated for 6 hrs by LC-MS/MS analysis; format: ADME, cell-free; conditions: read-out: PPB (converted)
[13] = Aqueous solubility of compound at pH 2 by LC-MS/MS analysis; format: physicochemical; conditions: buffer
[14] = Aqueous solubility of compound at pH 7.4 by LC-MS/MS analysis; format: physicochemical; conditions: buffer
[15] = Apparent volume of distribution in Sprague-Dawley rat at 1 mg/kg, iv measured upto 24 hrs by LC-MS analysis; format: ADME, organism-based; conditions: in vivo, read-out: Vz
[16] = Bioavailability in Sprague-Dawley rat at 10 mg/kg, IG measured upto 24 hrs by LC-MS analysis; format: ADME, organism-based; conditions: in vivo, po
[17] = Half life in ICR mouse at 1 mg/kg, iv measured upto 24 hrs by LC-MS analysis; format: ADME, organism-based; conditions: in vivo
[18] = AUC (0 to t) in ICR mouse at 1 mg/kg, iv measured upto 24 hrs by LC-MS analysis; format: ADME, organism-based; conditions: in vivo
[19] = Clearance in ICR mouse at 1 mg/kg, iv measured upto 24 hrs by LC-MS analysis; format: ADME, organism-based; conditions: in vivo
[20] = Volume of distribution at steady state in ICR mouse at 1 mg/kg, iv measured upto 24 hrs by LC-MS analysis; format: ADME, organism-based; conditions: in vivo, read-out: Vdss
[21] = Tmax in ICR mouse at 10 mg/kg, IG measured upto 24 hrs by LC-MS analysis; format: ADME, organism-based; conditions: in vivo, po
[22] = Cmax in ICR mouse at 10 mg/kg, IG measured upto 24 hrs by LC-MS analysis; format: ADME, organism-based; conditions: in vivo, po
Cytochrome P450 1A2 = target: T1, Cytochrome P450 1A2 (Homo sapiens, UniProt P05177); test: Inhibition of CYP1A2 in human liver microsomes with alpha-naphthoflavone as reference inhibitor preincubated with compound for 5 mins followed by substrate addition and measured after 120 mins in presence of NADPH by LC-MS/MS analysis; format: ADME, Microsome
T1 sequence (P05177 whole entry): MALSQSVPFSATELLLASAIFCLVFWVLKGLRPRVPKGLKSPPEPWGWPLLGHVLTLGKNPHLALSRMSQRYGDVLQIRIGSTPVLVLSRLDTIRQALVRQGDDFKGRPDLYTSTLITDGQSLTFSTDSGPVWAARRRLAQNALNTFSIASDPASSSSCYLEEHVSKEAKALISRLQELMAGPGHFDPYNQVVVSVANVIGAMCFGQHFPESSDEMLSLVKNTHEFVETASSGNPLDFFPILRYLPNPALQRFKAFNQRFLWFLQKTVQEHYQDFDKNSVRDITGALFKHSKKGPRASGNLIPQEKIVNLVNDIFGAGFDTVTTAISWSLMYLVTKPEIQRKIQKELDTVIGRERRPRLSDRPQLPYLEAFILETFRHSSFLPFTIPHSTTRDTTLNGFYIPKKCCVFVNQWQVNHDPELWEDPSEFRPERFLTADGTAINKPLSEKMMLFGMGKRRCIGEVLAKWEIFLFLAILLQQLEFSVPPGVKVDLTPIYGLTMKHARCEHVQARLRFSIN

Cytochrome P450 2C19 = Cytochrome P450 2C19 (Homo sapiens, UniProt P33261); test: Inhibition of CYP2C19 in human liver microsomes […] preincubated with compound for 5 mins followed by substrate addition and measured after 120 mins in presence of NADPH by LC-MS/MS analysis; format: ADME, Microsome
Chain of Cytochrome P450 2C19 (P33261 whole entry): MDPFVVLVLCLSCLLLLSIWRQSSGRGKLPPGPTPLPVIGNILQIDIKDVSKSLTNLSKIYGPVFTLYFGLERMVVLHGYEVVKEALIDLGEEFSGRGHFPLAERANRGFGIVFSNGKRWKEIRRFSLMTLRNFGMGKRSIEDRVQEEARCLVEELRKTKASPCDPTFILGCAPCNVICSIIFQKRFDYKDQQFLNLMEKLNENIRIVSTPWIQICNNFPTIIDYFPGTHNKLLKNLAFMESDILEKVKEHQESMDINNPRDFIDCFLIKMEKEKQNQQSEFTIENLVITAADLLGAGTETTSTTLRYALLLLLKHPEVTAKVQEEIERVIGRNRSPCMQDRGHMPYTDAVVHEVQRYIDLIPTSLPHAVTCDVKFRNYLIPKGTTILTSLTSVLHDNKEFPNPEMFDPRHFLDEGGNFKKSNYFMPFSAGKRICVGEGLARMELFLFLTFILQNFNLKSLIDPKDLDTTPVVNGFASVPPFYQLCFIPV

Cytochrome P450 3A4 = Cytochrome P450 3A4 (Homo sapiens, UniProt P08684); test: Inhibition of CYP3A4 in human liver microsomes […] preincubated with compound for 5 mins followed by substrate addition and measured after 120 mins in presence of NADPH by LC-MS/MS analysis; format: ADME, Microsome
Chain of Cytochrome P450 3A4 (P08684 whole entry): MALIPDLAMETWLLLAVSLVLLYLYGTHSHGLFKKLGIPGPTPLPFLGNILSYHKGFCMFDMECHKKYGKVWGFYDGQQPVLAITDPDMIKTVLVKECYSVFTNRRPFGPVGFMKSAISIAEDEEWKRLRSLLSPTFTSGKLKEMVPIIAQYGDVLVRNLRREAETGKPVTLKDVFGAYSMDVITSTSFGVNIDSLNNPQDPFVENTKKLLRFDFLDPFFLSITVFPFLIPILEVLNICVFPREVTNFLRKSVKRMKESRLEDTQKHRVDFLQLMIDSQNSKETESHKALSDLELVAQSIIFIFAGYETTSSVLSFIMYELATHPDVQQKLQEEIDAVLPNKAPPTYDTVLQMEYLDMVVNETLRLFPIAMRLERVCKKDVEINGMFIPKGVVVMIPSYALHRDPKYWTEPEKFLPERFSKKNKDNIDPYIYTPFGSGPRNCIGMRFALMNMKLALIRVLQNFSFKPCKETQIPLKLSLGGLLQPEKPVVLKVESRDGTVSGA

[23] = Apparent permeability across apical to basolateral side in human Caco-2 cells; format: ADME, cell-based
[24] = target: T2, Amine oxidase [flavin-containing] A (Homo sapiens, UniProt P21397); test: Inhibition of MAO-A (unknown origin) preincubated with compound for 15 mins followed by substrate addition and measured after 60 mins by luminescence based microplate reader analysis; format: toxicity
T2 sequence (P21397 whole entry): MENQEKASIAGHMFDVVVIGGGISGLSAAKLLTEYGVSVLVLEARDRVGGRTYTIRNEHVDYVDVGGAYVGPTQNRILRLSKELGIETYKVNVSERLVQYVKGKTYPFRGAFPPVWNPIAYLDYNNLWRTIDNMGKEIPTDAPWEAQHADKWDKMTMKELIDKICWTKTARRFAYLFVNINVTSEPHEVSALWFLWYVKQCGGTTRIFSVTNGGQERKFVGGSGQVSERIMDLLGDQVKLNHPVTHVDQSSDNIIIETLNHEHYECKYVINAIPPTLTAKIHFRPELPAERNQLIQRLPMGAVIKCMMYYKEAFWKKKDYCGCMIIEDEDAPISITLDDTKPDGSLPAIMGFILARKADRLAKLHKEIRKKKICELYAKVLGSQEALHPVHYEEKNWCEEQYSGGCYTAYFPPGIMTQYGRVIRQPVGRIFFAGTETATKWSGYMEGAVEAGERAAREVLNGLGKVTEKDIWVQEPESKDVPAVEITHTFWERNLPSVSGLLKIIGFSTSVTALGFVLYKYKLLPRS

Compound	half-life [1]	half-life [2]	microsomal CLint [4]	microsomal CLint [5]	remaining at 1 h [8]	remaining at 1 h [9]	remaining at 1 h [10]	fraction unbound at 6 h [11]	fraction unbound at 6 h [12]	solubility [13]	solubility [14]	Vd [15]	bioavailability [16]	half-life [17]	AUC(0-t) at 24 h [18]	clearance [19]	Vd [20]	IC50 (Cytochrome P450 1A2)	IC50 (Cytochrome P450 2C19)	IC50 (Cytochrome P450 3A4)	also measured
CC(C)N/N=C/c1ccc(-c2ccc(N3C[C@H](CO)OC3=O)cc2F)cn1	1.68 h	3.37 h	12.6 µL/min/mg	18.4 µL/min/mg	107%	106%	108%	0.115	0.048	56.4 µM (≈ 21 µg/mL)	30.2 µM (≈ 11.2 µg/mL)	0.72 L/kg	65.8%	0.34 h	475 ng·h/mL	34.9 mL/min/kg	0.42 L/kg	> 30 µM	11 µM	16.5 µM	beta t1/2 ([3]; microsomes, 1 h): 1.87 h; Stability ([6]; microsomes, 2 h): 70.2%; Stability ([7]; microsomes, 2 h): 57.9%; Tmax [21]: 0.25 h; Cmax [22]: 479 ng/mL
O=C1O[C@@H](CO)CN1c1ccc(-c2ccc(/C=N/N3CCOCC3)nc2)c(F)c1	7.78 h	19.2 h	2.3 µL/min/mg	2.02 µL/min/mg	98.6%	103%	115%	0.215	0.117	52.6 µM (≈ 21.1 µg/mL)	10.9 µM (≈ 4.36 µg/mL)	0.81 L/kg	68.1%	2.1 h	2640 ng·h/mL	5.9 mL/min/kg	0.87 L/kg	> 30 µM	> 30 µM	> 30 µM	Papp A→B [23]: 36.7 ×10⁻⁶ cm/s; half-life [3]: 10.2 h; remaining at 2 h [6]: 93.4%; remaining at 2 h [7]: 96%; Tmax [21]: 2 h; Cmax [22]: 4810 ng/mL; IC50 [24]: 5.64 µM
O=C1O[C@@H](CO)CN1c1ccc(-c2ccc(/C=N/N3CCCCC3)nc2)c(F)c1	1.34 h	1.78 h	14.5 µL/min/mg	9.37 µL/min/mg	118%	105%	100%	0.028	0.013	58.4 µM (≈ 23.3 µg/mL)	9.94 µM (≈ 3.96 µg/mL)	1.06 L/kg	51.1%	1.54 h	1190 ng·h/mL	13.9 mL/min/kg	1.31 L/kg	> 30 µM	0.858 µM	> 30 µM	Papp A→B [23]: 11.1 ×10⁻⁶ cm/s; half-life [3]: 1.61 h; remaining at 2 h [6]: 63.3%; remaining at 2 h [7]: 75.2%; Tmax [21]: 2 h; Cmax [22]: 817 ng/mL
CC(=O)NC[C@H]1CN(c2ccc(N3CCOCC3)c(F)c2)C(=O)O1 [LINEZOLID]	51.8 h	34.6 h	2.22 µL/min/mg	2.18 µL/min/mg	110%	105%	110%	0.745	0.721	–	–	0.75 L/kg	–	0.39 h	794 ng·h/mL	20.6 mL/min/kg	0.56 L/kg	> 30 µM	> 30 µM	> 30 µM	half-life [3]: 10.4 h; remaining at 2 h [6]: 93.9%; remaining at 2 h [7]: 92.3%; Tmax [21]: 0.25 h; Cmax [22]: 10000 ng/mL; IC50 [24]: 20 µM
O=C1O[C@@H](CO)CN1c1ccc(-c2ccc(/C=N/N3CCS(=O)(=O)CC3)nc2)c(F)c1	9.68 h	–	2.07 µL/min/mg	1.07 µL/min/mg	104%	103%	107%	0.284	0.245	72.2 µM (≈ 32.4 µg/mL)	20 µM (≈ 8.97 µg/mL)	0.73 L/kg	19.8%	–	–	–	–	> 30 µM	> 30 µM	> 30 µM	beta t1/2 ([2]; microsomes, 2 h): 98.85 h; half-life [3]: 12.1 h; remaining at 2 h [6]: 92.8%; remaining at 2 h [7]: 96%
